Experimental data published in PMC4156305, “Structure Driven Design of Novel Human Ether-A-Go-Go-Related-Gene Channel (hERG1) Activators” (PLoS ONE, 2014).
Entries after “also recorded” stand apart in the source; their conditions may differ. One block for each compound: values may come before it.

What was measured:
hERG1 [1] = target: T1, hERG1 (Homo sapiens, UniProt Q12809); assay: Whole cell patch-clamp of hERG1 currents in transfected HEK 293 cells; type: cell-based; parameters: Inactivation ΔV0.3: unit not given here; conditions: for Deactivation Δλ/λcon: deactivation time constant relative to baseline; for Activation V1/2 (mV): shift in voltage-dependence of activation; for Inactivation ΔV0.3: shift in voltage-dependence of inactivation; for Amplitude I/Icon: tail current relative to baseline
T1 construct: expressed in transfected cells; host or cells: HEK 293
Procedure: (§1) Transfected HEK cells on glass cover slips were placed in a chamber mounted on a modified stage of an inverted microscope. The chamber was superfused at a rate of 2 mL/min with a normal external solution. The extracellular solution contained (in mM) NaCl 140, KCl 5.4, CaCl2 1, MgCl2 1, HEPES 5, glucose 5.5, pH 7.4, with NaOH. Micropipettes were pulled from borosilicate glass capillary tubes on a programmable horizontal puller (Sutter Instruments, Novato, CA). Standard patch-clamp methods were used to measure the whole cell currents of hERG1 mutants expressed in HEK 293 cells using the AXOPATCH 200B amplifier (Axon Instruments). Unless otherwise indicated, tail currents were recorded when the voltage was returned to −50 mV from +50 mV. Further details on electrophysiological methods are collected in Methods S1.
(§2) Electrophysiology Protocol:
(§3) The pipette solution contained the following (at mM concentration): KCl 10, K-aspartate 110, MgCl2 5, Na2ATP 5, EGTA 10, HEPES 5, and CaCl2 1. The solution was adjusted to pH 7.2 with KOH. The extracellular solution contained the following (at mM concentration): NaCl 140, KCl 5.4, CaCl2 1, MgCl2 1, HEPES 5, and glucose 5.5. The solution was adjusted to pH 7.4 with NaOH. For IKr measurements, the whole cell configuration of the patch clamp method was used. The series resistance was less than 7
(§4) MΩ. The data were sampled at 1 kHz. The holding potential was -80 mV. The activation of hERG tail currents was induced by depolarization to a range of potentials from +50 to -100 mV in 10 mV steps for 1 second. This was followed by repolarization to -100 mV for 1 second to record the tail currents.
(§5) -100 mV, a -120 mV 1 second pre-pulse was applied to completely close the hERG channels before subsequent depolarization. All of the tail currents reported in this manuscript represent dofetilide-sensitive currents. The inactivation of hERG was measured by a previously reported triple-pulse protocol5, 6. The holding potential was -80 mV. The hERG channel was first depolarized to +50 mV for 1 second. Recovery from inactivation was achieved using a short pulse (a 10 ms hyperpolarization) to -120 mV, followed by the application of test pulses from -100 to 0 mV for 1 second in 10 mV steps.
(§6) A voltage of -100 mV was selected because it was on the flat part of the inactivation-voltage relationship. The methods employed are identical to ones previously reported. […]

[2] = tested on: fetal mouse ventricular myocytes; assay: Action potential recordings in neonatal (day 1) / fetal mouse ventricular myocytes; type: cell-based; conditions: for upstroke of the action potential, overshoot potential and excitability threshold: 20 µM
Procedure: (§7) Action potentials were recorded from neonatal (day 1) mouse ventricular myocytes as previously reported. Although IKr has little physiologic importance to the action potential of the adult rodent heart, we previously reported that IKr is the dominant repolarizing current in day 1 neonatal myocytes, with little or no IKs. Thus, these neonatal cells are well suited to assess the physiologic relevance of blockade of IKr to the action potential characteristics. In contrast, to address the possibility that compounds inadvertently interact with other channels, action potentials were recorded from adult cardiac myocytes. Myocytes on glass coverslips were placed in a chamber mounted on a modified stage of an inverted microscope.

hERG1 E544L [3] = target: T2, hERG1 E544L (Homo sapiens, UniProt Q12809, E544L); assay: Whole cell patch-clamp of hERG1 E544L mutant; type: cell-based; conditions: 10 µM
T2 construct: expressed in transfected cells; host or cells: HEK 293
Procedure: as §1, §2, §3, §4, §5, §6

[4] = target: T3, cardiac sodium current (INa) (Mus musculus, UniProt Q9JJV9); assay: Patch clamp of INa in neonatal cardiomyocytes; type: cell-based
T3 construct: endogenous in cells; host or cells: neonatal (day 1) mouse ventricular cardiomyocytes
T3 sequence (Q9JJV9 whole entry): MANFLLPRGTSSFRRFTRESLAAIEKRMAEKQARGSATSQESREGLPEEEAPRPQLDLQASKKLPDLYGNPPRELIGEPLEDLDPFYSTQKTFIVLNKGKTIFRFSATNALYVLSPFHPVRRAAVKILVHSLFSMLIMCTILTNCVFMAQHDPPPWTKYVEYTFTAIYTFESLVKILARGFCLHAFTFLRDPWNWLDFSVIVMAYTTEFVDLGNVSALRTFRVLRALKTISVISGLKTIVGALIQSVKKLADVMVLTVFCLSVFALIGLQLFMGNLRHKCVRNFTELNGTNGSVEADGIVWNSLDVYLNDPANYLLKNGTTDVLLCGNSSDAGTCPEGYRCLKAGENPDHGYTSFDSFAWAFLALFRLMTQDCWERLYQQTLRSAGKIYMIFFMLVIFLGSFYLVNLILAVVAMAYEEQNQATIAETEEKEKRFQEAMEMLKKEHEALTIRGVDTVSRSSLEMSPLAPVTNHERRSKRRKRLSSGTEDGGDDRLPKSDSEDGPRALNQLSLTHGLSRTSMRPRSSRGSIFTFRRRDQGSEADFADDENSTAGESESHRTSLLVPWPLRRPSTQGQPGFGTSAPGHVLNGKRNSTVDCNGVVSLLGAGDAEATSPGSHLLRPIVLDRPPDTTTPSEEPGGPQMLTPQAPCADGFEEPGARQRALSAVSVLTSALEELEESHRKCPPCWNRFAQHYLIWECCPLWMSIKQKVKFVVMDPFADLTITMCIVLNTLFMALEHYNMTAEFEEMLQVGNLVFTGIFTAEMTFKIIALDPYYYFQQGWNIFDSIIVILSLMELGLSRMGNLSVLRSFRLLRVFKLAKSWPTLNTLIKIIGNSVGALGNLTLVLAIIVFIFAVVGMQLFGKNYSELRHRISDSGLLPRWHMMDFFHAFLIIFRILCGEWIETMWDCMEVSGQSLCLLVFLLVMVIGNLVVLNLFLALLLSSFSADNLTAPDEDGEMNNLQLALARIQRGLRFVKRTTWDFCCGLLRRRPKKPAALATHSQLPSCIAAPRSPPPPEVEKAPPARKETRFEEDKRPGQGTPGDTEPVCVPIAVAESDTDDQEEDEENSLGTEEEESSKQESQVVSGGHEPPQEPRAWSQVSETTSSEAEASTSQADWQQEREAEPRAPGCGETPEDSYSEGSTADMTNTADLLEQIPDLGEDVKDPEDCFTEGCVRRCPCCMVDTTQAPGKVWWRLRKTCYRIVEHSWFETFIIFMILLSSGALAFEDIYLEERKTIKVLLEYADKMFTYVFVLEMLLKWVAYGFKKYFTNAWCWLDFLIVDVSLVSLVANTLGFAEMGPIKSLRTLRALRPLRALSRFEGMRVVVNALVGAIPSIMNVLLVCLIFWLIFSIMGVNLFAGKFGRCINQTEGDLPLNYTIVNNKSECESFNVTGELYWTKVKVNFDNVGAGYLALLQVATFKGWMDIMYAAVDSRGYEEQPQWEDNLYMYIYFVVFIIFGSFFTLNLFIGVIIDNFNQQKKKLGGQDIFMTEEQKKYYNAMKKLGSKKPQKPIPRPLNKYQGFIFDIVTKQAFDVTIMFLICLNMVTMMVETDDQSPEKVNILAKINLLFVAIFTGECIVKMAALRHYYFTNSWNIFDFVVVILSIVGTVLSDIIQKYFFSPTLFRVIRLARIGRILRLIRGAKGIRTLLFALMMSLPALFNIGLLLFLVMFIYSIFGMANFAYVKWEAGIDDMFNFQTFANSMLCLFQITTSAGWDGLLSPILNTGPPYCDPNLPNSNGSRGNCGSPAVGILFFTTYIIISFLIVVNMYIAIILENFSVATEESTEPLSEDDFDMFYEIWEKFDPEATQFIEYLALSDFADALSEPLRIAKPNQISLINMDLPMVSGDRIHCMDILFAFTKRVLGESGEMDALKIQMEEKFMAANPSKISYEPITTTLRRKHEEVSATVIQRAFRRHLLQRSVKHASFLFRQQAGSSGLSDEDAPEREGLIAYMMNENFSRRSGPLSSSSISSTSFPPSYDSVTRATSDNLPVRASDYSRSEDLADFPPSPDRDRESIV
Procedure: as §7
Figure 10 Drug effect on action potential in cardiomyocytes. Panel A. The effect of 20 µM and 3 µM Panel B. MC-II-157c on action potentials neonatal cardiomyocytes. […] In patch clamp studies, the INa was induced by depolarizations to −30 mV from holding potentials of −100 mV. The light traces are baseline and bold traces were recorded with MC-II-157c.

hERG1 [5] = target: T1, hERG1; conditions: cited from earlier work
hERG1 E544L [6] = target: T2, hERG1 E544L; conditions: ref [7]–[12]; cited from earlier work
[7] = Conc. 2 µM, listed as MC-II-159c
[8] = Conc. 3 µM, listed as MC-II-157c
[9] = Conc. 10 µM, listed as MC-II-157c

Structure (SMILES): C[C@H](NCc1ccc(Br)cc1)C(=O)NC(=O)Nc1cc(C(F)(F)F)ccc1O [Compound 4]
lower drug concentration at which effects on deactivation were still manifest (hERG1 [1]): ~2 µM
Deactivation Δλ/λcon (hERG1 [1]; Conc. 2 µM): 0.25±0.02
Deactivation Δλ/λcon (hERG1 [1]; [7]): significantly prolonged deactivation
Activation V1/2 (mV) (hERG1 [1]; Conc. 2 µM): −5±2 mV
Inactivation ΔV0.3 (hERG1 [1]; Conc. 2 µM): −0.5±0.5
Amplitude I/Icon (hERG1 [1]; Conc. 2 µM): 0.76±0.14
Amplitude I/Icon (hERG1 [1]; [7]): 0.76
Inactivation ΔV0.3 (hERG1 [1]; Conc. 10 µM): shifts voltage dependence to hyperpolarized potentials
Deactivation Δλ/λcon (hERG1 [1]; Conc. 20 µM): 3.1±1.6
Activation V1/2 (mV) (hERG1 [1]; Conc. 20 µM): −33±14 mV
Inactivation ΔV0.3 (hERG1 [1]; Conc. 20 µM): −4.5±1.5
Amplitude I/Icon (hERG1 [1]; Conc. 20 µM): 0.6±0.07
Amplitude I/Icon (hERG1 [1]; Conc. 20 µM, listed as MC-II-159c): 0.6
upstroke of the action potential, overshoot potential and excitability threshold [2]: affected the upstroke of the action potential, the overshoot potential and the excitability threshold
response in amplitude of the tail current in E544L versus WT (hERG1 E544L [3]): markedly diminished
pharmacologic responses (shift in voltage-dependence of activation, slowing of deactivation) in E544L versus WT (hERG1 E544L [3]; listed as MC-II-159c): significantly and substantially less pharmacologic responses; also recorded: significantly and substantially reduced

concentrations at which INa is blocked [4]: > 20 µM
Structure (SMILES): C[C@H](NCc1ccc(C(F)(F)F)cc1)C(=O)NC(=O)Nc1cc(C(F)(F)F)ccc1O [Compound 5]
blockade of the sodium current (INa) ([4]; 20 µM, listed as MC-II-157c): blocks a cardiac sodium channel; also recorded: substantially blocks INa
lower drug concentration at which effects on deactivation were still manifest (hERG1 [1]): ~2 µM
Deactivation Δλ/λcon (hERG1 [1]; Conc. 1 µM): 0.2±0.1
Activation V1/2 (mV) (hERG1 [1]; Conc. 1 µM): −2±0.0 mV
Inactivation ΔV0.3 (hERG1 [1]; Conc. 1 µM): 1.3±0.9
Amplitude I/Icon (hERG1 [1]; Conc. 1 µM): 0.95±0.02
Deactivation Δλ/λcon (hERG1 [1]; Conc. 3 µM): 0.8±0.1
Deactivation Δλ/λcon (hERG1 [1]; [8]): slows deactivation; also recorded: modest slowing of deactivation
Activation V1/2 (mV) (hERG1 [1]; Conc. 3 µM): −6.5±0.5 mV
Activation V1/2 (mV) (hERG1 [1]; [8]): does shift voltage dependence of activation; also recorded: shifting V1/2 of activation to hyperpolarized potentials
Inactivation ΔV0.3 (hERG1 [1]; Conc. 3 µM): 1±1
Amplitude I/Icon (hERG1 [1]; Conc. 3 µM): 1.1±0.04
Amplitude I/Icon (hERG1 [1]; [8]): significantly increased the tail-current amplitude; also recorded: increases tail current amplitude; also recorded: modest increase in tail current amplitude
Deactivation Δλ/λcon (hERG1 [1]; Conc. 10 µM): 3.3±1.3
Activation V1/2 (mV) (hERG1 [1]; Conc. 10 µM): −14±3.6 mV
Inactivation ΔV0.3 (hERG1 [1]; Conc. 10 µM): 14.0±2.7
Inactivation ΔV0.3 (hERG1 [1]; [9]): shifts voltage-dependence of inactivation to depolarized potentials
Amplitude I/Icon (hERG1 [1]; Conc. 10 µM): 0.88±0.1
Amplitude I/Icon (hERG1 [1]; [9]): 0.88
Deactivation Δλ/λcon (hERG1 [1]; Conc. 20 µM): 3.5±0.2
Activation V1/2 (mV) (hERG1 [1]; Conc. 20 µM): −15.3±4.1 mV
Inactivation ΔV0.3 (hERG1 [1]; Conc. 20 µM): +9.3±2.0
Amplitude I/Icon (hERG1 [1]; Conc. 20 µM): 0.86±0.1
Deactivation Δλ/λcon (hERG1 [1]; Conc. 50 µM): 4.5±0.1
Activation V1/2 (mV) (hERG1 [1]; Conc. 50 µM): −27.5±3.5 mV
Inactivation ΔV0.3 (hERG1 [1]; Conc. 50 µM): 26±1
Amplitude I/Icon (hERG1 [1]; Conc. 50 µM): 0.83±0.1
magnitude of the effects on activation and deactivation, greater than previously reported with NS1643 (hERG1 [1]; relative to NS1643): 6-10 fold
action potential duration ([2]; 3 µM, listed as MC-II-157c): significantly shortened action potential duration
upstroke of the action potential, overshoot potential and excitability threshold ([2]; listed as MC-II-157c): affected the upstroke of the action potential, the overshoot potential and the excitability threshold; also recorded: decreased the upstroke dV/dt of the action potential, the overshoot potential and excitability threshold
response in amplitude of the tail current in E544L versus WT (hERG1 E544L [3]): markedly diminished
pharmacologic responses (shift in voltage-dependence of activation, slowing of deactivation) in E544L versus WT (hERG1 E544L [3]; listed as MC-II-157c): significantly and substantially less pharmacologic responses; also recorded: significantly and substantially reduced

Structure (SMILES): O=C(Nc1cc(C(F)(F)F)ccc1O)Nc1cc(C(F)(F)F)ccc1O [NS1643]
NS1643-induced increase in tail current amplitude (hERG1 [5]; WT, ref [7]–[12]): 13%
NS1643-induced slowing of deactivation (hERG1 [5]; WT, ref [7]–[12]): 1.9 fold
concentration increasing current density / tail current magnitude (hERG1 [5]; ref [7]): 10 µM
concentration producing channel blockade (hERG1 [5]; ref [7]): 30 µM
concentration that increases the magnitude of the tail current (hERG1 [5]; ref [13]): 10 µM
concentrations that pharmacologically block the channel (hERG1 [5]; ref [13]): 20–30 µM
NS1643-induced shift in the V1/2 of activation (hERG1 [5]; wild type (WT), ref [7]–[12]): −18±3 mV
NS1643-induced increase in tail current amplitude (hERG1 E544L [6]): 398%
NS1643-induced shift in the V1/2 of activation (hERG1 E544L [6]): −24±3 mV
NS1643-induced slowing of deactivation (hERG1 E544L [6]): 3.5 fold
Deactivation Δλ/λcon (hERG1 [1]; Conc. 10 µM): 1±0.4
Activation V1/2 (mV) (hERG1 [1]; Conc. 10 µM): −21±2.3 mV
Inactivation ΔV0.3 (hERG1 [1]; Conc. 10 µM): +6±0.6
Amplitude I/Icon (hERG1 [1]; Conc. 10 µM): 1±0.04
safety factor (hERG1 [1]; original safety factor, blockade versus activation): 3 fold
pharmacologic responses (shift in voltage-dependence of activation, slowing of deactivation) in E544L versus WT (hERG1 E544L [3]): exaggerated pharmacologic responses; also recorded: exaggerated response
response in amplitude of the tail current in E544L versus WT (hERG1 E544L [3]): exaggerated
